Assay results published in patent US11307204B2, “5-ALA for detection of brain tumors” (PIOMA, INC., priority 2012, dated 2022).

Test system: U87 cells
Assay: Flow cytometry detection of PPIX in U87 cells exposed to 5-ALA
Assay type: cell-based
Conditions: serum-free, 5-ALA 250 μg/ml, excitation 406 nm, filter 610/20
Description: U87 cells representative of GBM tumors grown in T-75 flasks, in the absence of serum, were exposed to 5-aminolevulinic acid ([…]; 250 μg/ml) for 4 or 24 hours. Following exposure, cells were subjected to fluorescent excitation in a LSRII flow cytometer with an excitation at 406 nm violet wave length. Filter specifications were set at either 450/50, or set at 610/20 for the detection of protoporphyrin IX (PPIX).

## NCC(=O)CCC(=O)O [5-ALA, 5-aminolevulinic acid]
4 hours
  mean fluorescence index (MFI), PPIX: MFI increased
24 hours
  mean fluorescence index (MFI), PPIX: MFI increased
